Assay results taken from patent publication US20220162558A1, “METHOD FOR INDUCING DIFFERENTIATION OF STEM CELLS INTO CHONDROCYTES BY USING OLIGOPEPTIDES” (POSTERA HEALTH SCIENCE Inc., priority 2019, published 2022).
Entries after “also recorded” stand apart in the source; their conditions may differ.

Key:
Type in all cases: cell-based
[1] = test system: COL II in tonsil-derived mesenchymal stem cells; assay: Immunofluorescence assay of COL II protein in sectioned 3D pellets; conditions: 3D pellet culture, compared with control system and WFE- or WLE-treated system
Experimental: Tonsil-derived mesenchymal stem cells (passage 6) were enzymatically detached by trypsin treatment and counted by a hemocytometer. The tube was centrifuged in 500-g relative centrifugal force (RCF) for 10 minutes and incubated at 37° C. under 5% carbon dioxide for 24 hours. A cell pellet consisting of about 3.0×10^5 cells was formed in a conical polypropylene tube (15 mL). The FBS-containing growth medium was replaced by medium A containing a high-glucose DMEM supplemented with 1.0% (v/v) antibiotic/antimitotic solution, 1.0% (v/v) penicillin/streptomycin solution, 50 μg/mL ascorbate-2-phosphate, 40 μg/mL L-proline, and 1% ITS+Premix (final concentration: 10 μg/mL bovine insulin, 5.5 μg/mL transferrin, 5 μg/mL sodium selenite, 4.7 μg/mL linoleic acid, and 0.5 mg/mL BSA), and 100 nM dexamethasone. Pellets were cultured at 37° C. under 5% carbon dioxide for 21 days under the following three different conditions: 1) medium A only, 2) medium A supplemented with kartogenin, or 3) medium A supplemented with each tripeptides. Each medium was replaced every three days. […]
The stem cell pellets were fixed in formalin aqueous solution (10% v/v) and embedded in paraffin. […] Then, the sectioned cell pellet samples were deparaffinized by xylene, and analyzed by immunofluorescence using antibody, alcian blue staining, and safranin O staining to visualize COL II, sGAG and proteoglycan, respectively. […]

[2] = test system: tonsil-derived mesenchymal stem cells (TMSCs); assay: First-round screening: chondrogenic biomarker mRNA expression by real-time RT-PCR in 2D culture; conditions: tripeptide 10 μM, serum-free medium, after 7 days of incubation
Experimental: The medium was replaced every three days.
(§1) Total RNA was extracted from the cells by using a TRIZOL™ reagent (Invitrogen, USA). The mRNA concentration was assayed by Nano Drop 2000 spectrophotometer (Thermo Scientific, USA). cDNA was synthesized by ReverTra Ace® qPCR RT kit (Toyobo, Japan). mRNA expression levels were analyzed by real-time RT-PCR (CFX96™, Bio-Rad, USA) using IQ™ SYBR® Green Supermix (Bio-Rad, USA). The expression levels of target genes were calculated as 2^−ΔΔCt by the following calculation equation, and the primer sequences are shown in Table 1 below.
(§2) ΔΔCt=(gene A−GAPDH)−(gene A−GAPDH)control

[3] = test system: tonsil-derived mesenchymal stem cells (TMSCs); assay: 3D pellet culture: biomarker mRNA expression by real-time RT-PCR; conditions: tripeptide 10 μM, 3D pellet culture in chondrogenic medium
Experimental: (§3) Tonsil-derived mesenchymal stem cells (passage 6) were enzymatically detached by trypsin treatment and counted by a hemocytometer. The tube was centrifuged in 500-g relative centrifugal force (RCF) for 10 minutes and incubated at 37° C. under 5% carbon dioxide for 24 hours. A cell pellet consisting of about 3.0×10^5 cells was formed in a conical polypropylene tube (15 mL). The FBS-containing growth medium was replaced by medium A containing a high-glucose DMEM supplemented with 1.0% (v/v) antibiotic/antimitotic solution, 1.0% (v/v) penicillin/streptomycin solution, 50 μg/mL ascorbate-2-phosphate, 40 μg/mL L-proline, and 1% ITS+Premix (final concentration: 10 μg/mL bovine insulin, 5.5 μg/mL transferrin, 5 μg/mL sodium selenite, 4.7 μg/mL linoleic acid, and 0.5 mg/mL BSA), and 100 nM dexamethasone. Pellets were cultured at 37° C. under 5% carbon dioxide for 21 days under the following three different conditions: 1) medium A only, 2) medium A supplemented with kartogenin, or 3) medium A supplemented with each tripeptides. Each medium was replaced every three days. Triplicate experiments were carried out for each system.
as §1, §2
The medium was supplemented with each tripeptide (10 μM), and tonsil-derived mesenchymal stem cells (size: ˜ mm) were prepared. Chondrogenic medium without tripeptide was used as control experiment. Medium supplemented with kartogenin (target molecule) instead of tripeptide was used for the purpose of comparing chondrogenic differentiation of tonsil-derived mesenchymal stem cells.

[4] = test system: sGAG in tonsil-derived mesenchymal stem cells; assay: Alcian blue staining of sectioned 3D pellets; conditions: 3D pellet cultured 21 days, sections of 7 μm
Experimental: as §3

[5] = test system: proteoglycan in tonsil-derived mesenchymal stem cells; assay: Safranin O staining of sectioned 3D pellets; conditions: 3D pellet cultured 21 days, sections of 7 μm
Experimental: as §3

Compound | COL II at protein level, red staining by immunofluorescence [1] | chondrogenic biomarker expression at mRNA level (COL II, SOX 9, COMP) [2] | chondrogenic mRNAs of COL II, COMP and ACAN, expression [3] | expression levels of COL X and COL I α2 relative to control system ([3]; hypertrophy / osteogenic biomarkers) | sGAG, alcian blue staining [4] | proteoglycan, safranin O staining [5]
O=C(O)c1ccccc1C(=O)Nc1ccc(-c2ccccc2)cc1 [kartogenin, reference compound] | distinguished for their red staining by COL II |  |  |  |  | 
tryptophan-leucine-glutamic acid [WLE] |  | enhanced | highly expressed |  |  | 
tryptophan-phenylalanine-glutamic acid [WFE] |  | enhanced | highly expressed |  |  | 
tyrosine-tyrosine-glutamic acid [YYE] | distinguished for their red staining by COL II | enhanced; also recorded: good promoter comparable to kartogenin | highly expressed | less than half of the control system | upregulated | upregulated
